{
  "source": "patent US6288040A",
  "about": "“Medicament excipient particles for tissue-specific application of a medicament” (DSS Drug Delivery Service Gesellschaft zur Forderung der …, priority 1997, dated 2001)",
  "origin": "cited, not measured here",
  "tested_on": "mice",
  "details": "free dalargin, high dosage 20 mg/kg",
  "note": "Non-standard residues stand in square brackets, D forms with d. No end group written: not given here.",
  "data": [
    {"substance": "Tyr-D-Ala-Gly-Phe-Leu-Arg (Y[dA]GFLR) [dalargin, hexapeptide, leu-enkephalin-analogon, opioid receptor agonist]", "values": [
      {"measurement": "analgesic effect after i.v. administration of dalargin", "result": "does not lead to an analgesic effect"}
    ]}
  ]
}
